Patent US20030096831A1, “Ocular growth and nicotinic antagonists” (priority 2000, published 2003)
Values joined by “and” are separate entries in the source; they are usually repeats but may differ in a detail not shown here. Equal entries are not always repeated. “Also recorded” adds a separate entry of the source.

Legend:
chick eye refraction = details: cited from earlier work
accommodation = details: nicotine intravitreal and subconjunctival; vecuronium bromide applied to corneas; cited from earlier work
development of myopia = details: chick, tree shrew, monkey and human; cited from earlier work
[1] = tested on: putative α3β4-containing receptor; details: cited from earlier work
[2] = tested on: nicotinic receptors in preparations of rat thalamus; details: cited from earlier work
[3] = tested on: nicotinic receptors mediating dopamine release from rat synaptosomal preparations; details: cited from earlier work
[4] = molecular target: human muscle nicotinic receptors (Homo sapiens, UniProt P02708+P07510+Q07001); details: cited from earlier work
[5] = tested on: ocular elongation following spectacle-induced hyperopic defocus; details: applied to chick corneas; cited from earlier work
non-goggled eyes = experiment: Eye growth and refraction of non-goggled (open) eyes, intravitreal drug for one week
[6] = tested on: retina, retinal pigment epithelium, choroid; experiment: Histopathological effects on goggled and never-goggled eyes; format: in vivo, chicks; details: one week
Procedure: Histopathological effects. To identify potential histopathologic effects in other groups of monocularly deprived or never-goggled one-week old chicks, chlorisondamine (200 or 100 μg every other day; n=5-6/group), mecamylamine (200 or 50 μg daily; n=5-8/group) or saline vehicle (n=3-9/group) was administered by intravitreal injection to the goggled eyes or to one of the open eyes of never-goggled chicks with vehicle to the contralateral eye, using the identical protocol as above. After one week of treatment, the above protocols provided refraction, ultrasound and caliper measurements. The eyes were then immersion fixed in 3% glutaraldehyde/0.5% paraformaldehyde in 0.1M phosphate buffer, pH 7.4. The posterior segments were either embedded in paraffin, cut at 5 μm thickness and stained with hematoxylin and eosin, or embedded in historesin, cut at 3 μm or 5 μm thickness and stained with 0.5% azure II/0.5% methylene blue in 1% borate.

[7] = tested on: goggled eyes (form-deprivation myopia); experiment: Form-deprivation myopia in unilaterally goggled chicks, intravitreal drug for one week
form deprived eye = experiment: Longer term effects of single-dose chlorisondamine on form deprivation myopia; format: in vivo, chicks; details: for Refraction Difference: goggled minus contralateral eye
Procedure: Longer term effects of single-dose chlorisondamine. In a separate experiment, another group of goggled chicks received a single intravitreal dose of 200 μg of chlorisondamine to the form deprived eye and saline to the contralateral eye only at the time of goggle application. They were compared to a group of unilaterally goggled chicks receiving a single saline injection to both eyes only at the time of goggle application. Neither group received subsequent intraocular injections. These chicks were evaluated by refractometry and ultrasound 4 days later, using ketamine/xylazine anesthesia. At one week after goggle application and single drug injection, the same chicks were evaluated again with refractometry, ultrasonography and caliper measurements of enucleated eyes as described above.

[8] = tested on: chick eye (intraocular muscles, refraction, ocular dimensions); experiment: Acute drug effects after a single intravitreal injection (pupil, refractometry, ultrasonography); format: in vivo, chicks
Procedure: Acute drug effects. To assess acute drug effects, other two-week old chicks (n=5/group) received a single unilateral intravitreal injection of one of the nicotinic antagonists at doses chosen based on drug effects on the growth of goggled eyes: 200 μg chlorisondamine, 50 μg and 1 μg mecamylamine, 5 μg methyllycaconitine or […] dihydro-β-erythroidine. Just before and at two hours and 24 hours after injection, both eyes were examined by refractometry and ultrasonography by the above methods.

[9] = never-goggled chicks, drug treated vs contralateral vehicle treated eye, ANOVA on ranks
[10] = non-goggled chicks, treated eyes, P<0.05
[11] = 100 μg every other day, goggled or non-goggled eyes
[12] = difference goggled vs contralateral open eye, intravitreal, one week, ANOVA over all doses
[13] = goggled chicks, P<0.05, dose groups that differ, listed as Chlorisondamine
[14] = 1 Week after single 200 μg dose
[15] = 4 Days after single 200 μg dose
[16] = 2 hours after 200 μg single intravitreal injection
[17] = 24 hours after 200 μg single intravitreal injection

Chain of human muscle nicotinic receptors (P02708 21-457): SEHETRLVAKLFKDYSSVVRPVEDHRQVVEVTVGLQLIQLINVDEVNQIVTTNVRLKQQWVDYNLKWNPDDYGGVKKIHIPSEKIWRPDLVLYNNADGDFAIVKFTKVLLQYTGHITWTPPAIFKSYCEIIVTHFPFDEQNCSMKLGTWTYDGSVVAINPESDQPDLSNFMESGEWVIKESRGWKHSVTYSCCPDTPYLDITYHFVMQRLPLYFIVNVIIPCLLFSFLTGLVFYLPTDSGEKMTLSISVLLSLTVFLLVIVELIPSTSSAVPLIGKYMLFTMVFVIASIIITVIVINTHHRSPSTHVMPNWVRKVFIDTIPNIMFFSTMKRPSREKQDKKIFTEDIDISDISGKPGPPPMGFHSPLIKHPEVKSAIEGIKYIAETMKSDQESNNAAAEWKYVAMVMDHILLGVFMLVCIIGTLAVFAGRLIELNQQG
Chain of human muscle nicotinic receptors (Q07001 22-517): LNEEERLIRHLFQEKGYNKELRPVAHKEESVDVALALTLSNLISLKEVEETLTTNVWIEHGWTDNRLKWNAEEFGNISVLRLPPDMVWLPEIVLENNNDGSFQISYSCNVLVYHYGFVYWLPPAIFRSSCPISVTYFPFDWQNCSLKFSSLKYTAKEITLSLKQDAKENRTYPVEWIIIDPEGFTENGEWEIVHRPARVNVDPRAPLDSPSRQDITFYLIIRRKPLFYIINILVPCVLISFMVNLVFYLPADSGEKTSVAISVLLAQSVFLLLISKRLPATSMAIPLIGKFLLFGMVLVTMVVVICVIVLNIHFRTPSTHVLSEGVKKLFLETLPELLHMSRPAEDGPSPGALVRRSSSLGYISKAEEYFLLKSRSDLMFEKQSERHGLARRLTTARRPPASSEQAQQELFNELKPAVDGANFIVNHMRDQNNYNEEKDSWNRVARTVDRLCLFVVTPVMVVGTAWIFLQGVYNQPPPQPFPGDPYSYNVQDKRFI
Chain of human muscle nicotinic receptors (P11230 24-501 partner): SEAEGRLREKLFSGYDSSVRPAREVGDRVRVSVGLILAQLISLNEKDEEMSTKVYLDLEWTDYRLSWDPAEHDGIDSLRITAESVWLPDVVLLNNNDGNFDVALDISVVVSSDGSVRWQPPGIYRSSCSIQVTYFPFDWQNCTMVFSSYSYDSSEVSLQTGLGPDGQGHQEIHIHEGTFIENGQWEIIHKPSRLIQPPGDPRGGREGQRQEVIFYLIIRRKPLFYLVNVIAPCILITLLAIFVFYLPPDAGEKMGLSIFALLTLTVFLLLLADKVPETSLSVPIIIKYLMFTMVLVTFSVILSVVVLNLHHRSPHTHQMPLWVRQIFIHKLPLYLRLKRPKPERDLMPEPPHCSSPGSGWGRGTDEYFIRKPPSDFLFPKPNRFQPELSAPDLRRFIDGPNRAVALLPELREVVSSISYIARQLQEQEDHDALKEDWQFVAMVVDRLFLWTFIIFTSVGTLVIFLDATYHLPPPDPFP
Chain of human muscle nicotinic receptors (P07510 23-517): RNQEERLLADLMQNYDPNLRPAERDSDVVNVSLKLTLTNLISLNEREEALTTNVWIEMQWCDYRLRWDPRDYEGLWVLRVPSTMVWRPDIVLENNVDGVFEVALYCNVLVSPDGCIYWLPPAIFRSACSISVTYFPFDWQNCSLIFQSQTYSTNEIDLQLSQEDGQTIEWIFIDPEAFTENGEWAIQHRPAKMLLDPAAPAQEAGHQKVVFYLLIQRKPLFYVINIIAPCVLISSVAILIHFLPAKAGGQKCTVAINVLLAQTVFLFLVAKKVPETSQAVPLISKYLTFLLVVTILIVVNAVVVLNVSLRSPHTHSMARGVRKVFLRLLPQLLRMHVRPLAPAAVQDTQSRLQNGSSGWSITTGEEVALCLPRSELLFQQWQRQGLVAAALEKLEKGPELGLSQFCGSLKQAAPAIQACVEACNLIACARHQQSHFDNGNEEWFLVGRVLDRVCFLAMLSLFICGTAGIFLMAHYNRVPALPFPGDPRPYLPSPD

For `CN1CCCC1c1cccnc1` (stereo not shown) [nicotine], which “myopic refractive shift compared to non-treated eyes” value (chick eye refraction; daily subconjunctival injections, not seen for subconjunctival saline) is on record?
Its value is 0.75 diopters.

What about the “myopic shift in refraction compared to contralateral non-injected eyes” value (chick eye refraction; twice daily intravitreal injections for two weeks, intravitreal saline had the same effect) of the same compound?
Its value is about 2 diopter.

And the “effect on accommodation in chicks” value (accommodation)?
Its value is “induce accommodation”.

With `CN1[C@@H]2CC[C@H]1C[C@@H](OC(=O)C(CO)c1ccccc1)C2` (stereo partly shown) [atropine] as the compound, how does the “effect on accommodation in chicks” value (accommodation) read?
Its value is “fails to paralyze accommodation”.

What about the development of myopia (development of myopia) of the same compound?
Its development of myopia is “retards the development of myopia; also recorded: blocks myopia in the chick”.

With `c1cncc(C2CC3CCN2CC3)c1` (racemic) [RJR-2429, (+/−)-2-(-3-pyridinyl)-1-azabicyclo [2.2.2]octane] as the compound, how does the “action at putative α3β4-containing receptor” value [1] read?
Its value is “selectively activates”.

What about the “action at nicotinic receptors in preparations of rat thalamus” value [2] of the same compound?
The value was “inhibits”.

What about the “action at nicotinic receptors mediating dopamine release” value [3] of the same compound?
Its value is “partial agonist”.

What about the “action at human muscle nicotinic receptors” value [4] of the same compound?
Its value is “selectively activates”.

For `CC(=O)O[C@H]1C[C@@H]2CC[C@@H]3[C@H](CC[C@@]4(C)[C@H]3C[C@H]([N+]3(C)CCCCC3)[C@@H]4OC(C)=O)[C@@]2(C)C[C@@H]1N1CCCCC1` [vecuronium bromide], which “ocular elongation following spectacle-induced hyperopic defocus” value [5] is on record?
Its value is “failed to influence”.

And the “effect on accommodation in chicks” value (accommodation)?
The value was “paralyzed accommodation”.

What does the source list for `C[N+](C)(C)CC[N+]1(C)Cc2c(Cl)c(Cl)c(Cl)c(Cl)c2C1` [chlorisondamine, chlorisondamine diiodide]?
equatorial expansion of the vitreous cavity, non-goggled drug-treated eyes (non-goggled eyes; never-goggled chicks, ANOVA on ranks): did not reach statistical significance; increase in lens thickness (non-goggled eyes; never-goggled chicks, both eyes of the 10 μg group compared to 50, 100 or 200 μg doses and saline chicks): about 0.1 mm; axial expansion of the vitreous cavity, non-goggled drug-treated eyes (non-goggled eyes; [9]): growth reduction was confined to the vitreous cavity; also recorded: inhibited the axial expansion of the vitreous cavity; axial length by calipers, non-goggled drug-treated eyes (non-goggled eyes; [9]): reduced the axial growth of drug-treated eyes; also recorded: reduced axial length; axial length by ultrasound, non-goggled drug-treated eyes (non-goggled eyes; [9]): reduced the axial growth of drug-treated eyes; also recorded: reduced axial length; refraction of non-goggled drug-treated eyes (non-goggled eyes; [9]): hyperopic shift in refraction; also recorded: shifted overall refraction towards hyperopia; Ultrasound measurements vitreous cavity depth: statistically significant post hoc pairwise comparisons (Tukey test) (non-goggled eyes; [10]): 100 μg and 50 μg and 100 μg vs. 50 μg; refraction: statistically significant post hoc pairwise comparisons (Tukey test) (non-goggled eyes; [10]): 200 μg and 10 μg and 200 μg vs. 10 μg; gross inspection of the eye cups [6, 11]: either a normal fundus or only mild peripheral pigmentary changes; histology [6, 11]: Some eyes had normal histology, some showed a single large, smooth hyper-pigmented inclusion within a rare RPE cell as the sole detectable histologic change, and some had a small isolated peripheral patch of the marked RPE/choriocapillaris pathology; gross inspection of the eye cup ([6]; 200 μg every other day, most goggled eyes (4/5) and all never-goggled eyes (n=5)): mild to marked mottling and depigmentation of the mid-peripheral fundus; histology of tissue sections ([6]; 200 μg every other day, regions corresponding to peripheral depigmented areas): marked disruption and clumping of cells of the retinal pigment epithelium (RPE); axial length measured by digital calipers, goggled eyes, drug effect [7, 12]: inhibited the excessive axial elongation developing beneath a goggle; axial length measured by ultrasound, goggled eyes, drug effect [7, 12]: inhibited the excessive axial elongation developing beneath a goggle; equatorial diameter measured by calipers (equatorial expansion of vitreous cavity), goggled eyes, drug effect [7, 12]: reduced the vitreous cavity expansion; refraction of goggled eyes (myopic refractive error), drug effect [7, 12]: reduced the myopic refractive error; also recorded: influenced the myopic refraction occurring beneath a goggle; vitreous cavity length measured by ultrasound, goggled eyes, drug effect [7, 12]: reduced the vitreous cavity expansion; Ultrasound measurements vitreous cavity depth: statistically significant post hoc pairwise comparisons (Tukey test) ([7]; goggled chicks, P<0.05, dose groups that differ): 100 μg vs. 50 μg; Ultrasound measurements axial length: statistically significant post hoc pairwise comparisons (Tukey test) [7, 13]: significant drug effects compared to the vehicle-treated controls; Ultrasound measurements vitreous cavity depth: statistically significant post hoc pairwise comparisons (Tukey test) [7, 13]: significant drug effects compared to the vehicle-treated controls; refraction: statistically significant post hoc pairwise comparisons (Tukey test) [7, 13]: significant drug effects compared to the vehicle-treated controls; overall effect on excessive ocular growth / experimental myopia of goggled eyes ([7]; intravitreal, one week): reduced the excessive ocular growth occurring beneath a goggle; anterior chamber depth of goggled eyes, drug effect ([7]; intravitreal, one week, ANOVA): no statistically significant effect; axial length difference (ultrasound), ratio-chlorisondamine/vehicle (form deprived eye; 1 Week): 0.54; vitreous cavity length difference, ratio-chlorisondamine/vehicle (form deprived eye; 1 Week): 0.71; Caliper Measurements axial length difference (form deprived eye; [14]): 0.22 ± 0.10 mm**; Caliper Measurements equatorial diameter difference (form deprived eye; [14]): 0.17 ± 0.07 mm****; Ultrasound Measurements axial length difference (form deprived eye; [14]): 0.33 ± 0.11 mm**; Ultrasound Measurements vitreous cavity length difference (form deprived eye; [14]): 0.49 ± 0.08 mm*; Refraction Difference (form deprived eye; [14]): −8.58 ± 2.06 diopters; axial length difference (ultrasound), ratio-chlorisondamine/vehicle (form deprived eye; 4 Days): 0.47; vitreous cavity length difference, ratio-chlorisondamine/vehicle (form deprived eye; 4 Days): 0.70; Ultrasound Measurements axial length difference (form deprived eye; [15]): 0.20 ± 0.07 mm***; Ultrasound Measurements vitreous cavity length difference (form deprived eye; [15]): 0.28 ± 0.06 mm; Refraction Difference (form deprived eye; [15]): −2.98 ± 1.88 diopters**; response for form deprivation after a single dose, in words (form deprived eye; single dose of 200 μg at the time of goggle application, over the next week): significantly blunted the response for form deprivation over the next week; acute effect on ultrasound measurements of ocular dimensions, in words ([8]; 2 and 24 hours after single intravitreal injection): transiently reducing axial and vitreous cavity lengths at the 2 hour but not at the 24 hour reading; reduction in axial length by ultrasonography [8, 16]: 0.16±0.04 mm; reduction in posterior chamber depth by ultrasonography [8, 16]: 0.20±0.07 mm; reduction of lens thickness [8, 16]: 0.12±0.04 mm; axial length and posterior chamber depth at 24 hours [8, 17]: returned to baseline; reduction of lens thickness [8, 17]: 0.16±0.05 mm; pupil diameter, change from baseline ([8]; 24 hours after single intravitreal injection (chlorisondamine 200 μg)): 0.7±0.2 mm; pupil diameter, change from baseline ([8]; two hours after single intravitreal injection of 200 μg): 0.8±0.1 mm
